Reference: PMC9657321, “Identification of Boronate-Containing Diarylpyrimidine Derivatives as Novel HIV-1 Non-Nucleoside Reverse Transcriptase Inhibitors” (Molecules, 2022)

How the values were obtained:
[1] = system: wild-type HIV-1 (IIIB); assay: microbe, parasite or virus in culture; assay type: cell-based; conditions: for EC50: Human immunodeficiency virus 1, MT4, MT-4 cells, HIV-1 IIIB, MTT method; for RF IIIB: ratio EC50(resistant strain)/EC50(wild-type strain); for SI IIIB: selectivity index, ratio CC50/EC50, IIIB
Method: (§1) All data were calculated using the median optical density (OD) value of three wells.

[2] = system: HIV-1 Y188L mutant strain; assay: microbe, parasite or virus in culture; assay type: cell-based; conditions: for EC50: Human immunodeficiency virus 1, MT4, read-out: EC50 Y188L; for SI Y188L: ratio CC50/EC50, Y188L; for RF Y188L: ratio EC50 (resistant viral strain)/EC50 (wild-type viral strain)
Method: as §1

[3] = system: HIV-1 Y181C mutant strain; assay: microbe, parasite or virus in culture; assay type: cell-based; conditions: for EC50: Human immunodeficiency virus 1, MT4, read-out: EC50 Y181C, MT-4 cells, Y181C, MTT method; for SI Y181C: ratio CC50/EC50, Y181C; for RF Y181C: ratio EC50 (resistant viral strain)/EC50 (wild-type viral strain)
Method: as §1

[4] = system: HIV-1 L100I mutant strain; assay: microbe, parasite or virus in culture; assay type: cell-based; conditions: for EC50: Human immunodeficiency virus 1, MT4, read-out: EC50 L100I; for SI L100I: ratio CC50/EC50, L100I; for RF L100I: ratio EC50 (resistant viral strain)/EC50 (wild-type viral strain)
Method: as §1

[5] = system: HIV-1 K103N mutant strain; assay: microbe, parasite or virus in culture; assay type: cell-based; conditions: for EC50: Human immunodeficiency virus 1, MT4, read-out: EC50 K103N, MT-4 cells, K103N, MTT method; for SI K103N: ratio CC50/EC50, K103N; for RF K103N: ratio EC50 (resistant viral strain)/EC50 (wild-type viral strain)
Method: as §1

[6] = system: HIV-1 double-mutant strain RES056 (K103N/Y181C); assay: microbe, parasite or virus in culture; assay type: cell-based; conditions: for EC50: Human immunodeficiency virus 1, MT4, read-out: EC50 RES056; for RF RES056: ratio EC50(resistant strain)/EC50(wild-type strain); for SI RES056: selectivity index, ratio CC50/EC50, RES056
Method: as §1

[7] = system: HIV-1 F227L + V106A mutant strain; assay: microbe, parasite or virus in culture; assay type: cell-based; conditions: for EC50: Human immunodeficiency virus 1, MT4, read-out: EC50 F227L + V106A; for SI F227L + V106A: ratio CC50/EC50, F227L + V106A; for RF F227L + V106A: ratio EC50 (resistant viral strain)/EC50 (wild-type viral strain)
Method: as §1

[8] = system: HIV-1 E138K mutant strain; assay: microbe, parasite or virus in culture; assay type: cell-based; conditions: for EC50: Human immunodeficiency virus 1, MT4, read-out: EC50 E138K; for SI E138K: ratio CC50/EC50, E138K; for RF E138K: ratio EC50 (resistant viral strain)/EC50 (wild-type viral strain)
Method: as §1

[9] = biological target: T1, recombinant wild-type HIV-1 RT enzyme (Human immunodeficiency virus type 1 group M subtype B, UniProt P03366); assay: HIV-1 RT inhibition assay (ELISA, Roche RT assay kit); assay type: biochemical
T1 construct: recombinant wild-type HIV-1 RT enzyme; purchased Roche (Basel, Switzerland)
Method: The HIV-1 RT inhibition assay was performed by using an RT assay kit produced by Roche (Basel, Switzerland).
The biotin-labeled dNTPs were incorporated into the cDNA chain in the presence of RT and bound to streptavidin. The washing buffer was used to wash the unbound dNTPs and add the anti-DIG-POD to the MTPs.
The peroxide substrate (ABST) solution was added to the MTPs, when the unbound anti-DIG-PODs were washed out. […] The absorbance of the sample was determined at OD405 nm using a microtiter plate ELISA reader. The percentage inhibitory activity of RT inhibitors was calculated according to the following formula: % inhibition = [O.D. value with RT but without inhibitors − O.D. value with RT and inhibitors]/[O.D. value with RT and inhibitors − O.D. value without RT and inhibitors].

[10] = Cytotoxicity in mock-infected MT-4 cells, MTT method; assay type: cell-based; conditions: human
Method: The 3-(4,5-dimethylthiazol-2-yl)-2,5-diphenyltetrazolium bromide (MTT) method was used to evaluate the antiviral activity and cytotoxicity of the synthesized compounds as previously described. At the beginning of each experiment, stock solutions (10× final concentration) of test compounds were added in 25 μL volumes to two series of triplicate wells for allowing the simultaneous evaluation of their effects on mock- and HIV-infected cells. The serial 5-fold dilutions of the compounds were made in flat-bottomed 96-well microtiter trays directly, including untreated control HIV-1 and mock infected cell samples for each sample using a Biomek 3000 robot (Beckman Instruments, Fullerton, CA, USA). HIV-1 (IIIB) and mutant HIV-1 strains (RES056, F227L/V106A, L100I, K103N, E138K, Y181C, and Y188L) stock (50 μL at 100–300 CCID50) (50% cell culture infectious dose) or culture medium was added to either the infected or mock-infected wells of the microtiter tray. Mock-infected cells were used to evaluate the effect on uninfected cells to assess the cytotoxicity of the test compounds. Exponentially growing MT-4 cells were centrifuged for […] at 1000 rpm (Eppendorf 5424, Hamburg, Germany) and then the supernatant was discarded. The MT-4 cells were resuspended at 6 × 10^5 cells/mL and 50 μL aliquots were transferred to the microtiter tray wells. At 5 days after infection, the viability of mock- and HIV-infected cells was determined spectrophotometrically by means of MTT assay.
(§2) The MTT assay is based on the reduction of yellow-colored MTT (Acros Organics, Geel, Belgium) by mitochondrial dehydrogenase of metabolically active cells to form a blue-purple formazan. The absorbances were read in an eight-channel computer-controlled photometer at the wavelengths of 540 and 690 nm. All data were calculated using the median optical density (OD) value of three wells.

[11] = system: wild-type and mutant HIV-1 strains; assay: Anti-HIV-1 activity in MT-4 cells, MTT method, panel of strains (range over strains); assay type: cell-based; conditions: Human immunodeficiency virus 1, MT4, read-out: EC50 values over wild-type and a panel of single mutations
Method: […]. […] […].
The 3-(4,5-dimethylthiazol-2-yl)-2,5-diphenyltetrazolium bromide (MTT) method was used to evaluate the antiviral activity and cytotoxicity of the synthesized compounds as previously described. At the beginning of each experiment, stock solutions (10× final concentration) of test compounds were added in 25 μL volumes to two series of triplicate wells for allowing the simultaneous evaluation of their effects on mock- and HIV-infected cells. The serial 5-fold dilutions of the compounds were made in flat-bottomed 96-well microtiter trays directly, including untreated control HIV-1 and mock infected cell samples for each sample using a Biomek 3000 robot (Beckman Instruments, Fullerton, CA, USA). […] At 5 days after infection, the viability of mock- and HIV-infected cells was determined spectrophotometrically by means of MTT assay.
as §2

Cc1cc(C#N)cc(C)c1Oc1nc(Nc2ccc(B3OC(C)(C)C(C)(C)O3)cc2)nc2c1COC2 [Compound 3c, 3,5-Dimethyl-4-((2-((4-(4,4,5,5-tetramethyl-1,3,2-dioxaborolan-2-yl)phenyl)amino) -5,7-dihydrofuro [3,4-d]pyrimidin-4-yl)oxy)benzonitrile]
melting point: 149 to 151 °C
EC50 [1]: 0.051 ± 0.015 µM
RF IIIB [1]: 1.0
SI IIIB [1]: 1847
EC50 [2]: 4.52 ± 1.54 µM
SI Y188L [2]: 21
RF Y188L [2]: 87.9
EC50 [3]: 4.37 ± 2.19 µM
SI Y181C [3]: 22
RF Y181C [3]: 85.1
EC50 [4]: 2.43 ± 0.302 µM
SI L100I [4]: 39
RF L100I [4]: 47.3
EC50 [5]: 0.12 ± 0.019 µM
SI K103N [5]: 792
RF K103N [5]: 2.3
EC50 [6]: 25.8 ± 7.93 µM
RF RES056 [6]: 503
SI RES056 [6]: < 1
EC50 [7]: 9.1 ± 2.64 µM
SI F227L + V106A [7]: 10
RF F227L + V106A [7]: 177.2
EC50 [8]: 0.13 ± 0.041 µM
SI E138K [8]: 731
RF E138K [8]: 2.5
IC50 [9]: 0.228 ± 0.045 µM
CC50 at 5 days [10]: 94.8 ± 32.2 µM

Cc1cc(/C=C/C#N)cc(C)c1Oc1nc(Nc2ccc(B3OC(C)(C)C(C)(C)O3)cc2)nc2ccsc12 [Compound 4a, (E)-3-(3,5-Dimethyl-4-((2-((4-(4,4,5,5-tetramethyl-1,3,2-dioxaborolan-2-yl)phenyl)amino)thieno [3,2-d]pyrimidin-4-yl)oxy)phenyl)acrylonitrile]
EC50 [1]: 0.009 ± 0.002 µM
RF IIIB [1]: 1.0
EC50 [2]: 1.61 ± 0.508 µM
SI Y188L [2]: > 148
SI Y181C [3]: > 368
RF Y181C [3]: 74.8
EC50 [4]: 0.186 ± 0.032 µM
fold more potent than NVP ([4]; L100I EC50, versus NVP): 3.3 fold
SI L100I [4]: > 1285
RF L100I [4]: 21.4
EC50 [5]: 0.005 ± 0.006 µM
SI K103N [5]: > 47,170
RF K103N [5]: 0.6
EC50 [6]: > 238 µM
RF RES056 [6]: > 27516
EC50 [7]: > 1.81 µM
RF F227L + V106A [7]: 209.7
EC50 [8]: 0.021 ± 0.007 µM
SI E138K [8]: > 11,261
RF E138K [8]: 2.4
IC50 [9]: 0.167 ± 0.031 µM
EC50 [11]: 0.005 to 0.648 µM
CC50 at 5 days [10]: > 238 µM

Cc1cc(/C=C/C#N)cc(C)c1Oc1nc(Nc2ccc(B3OC(C)(C)C(C)(C)O3)cc2)nc2sccc12 [Compound 4b, (E)-3-(3,5-Dimethyl-4-((2-((4-(4,4,5,5-tetramethyl-1,3,2-dioxaborolan-2-yl)phenyl)amino)thieno [2,3-d]pyrimidin-4-yl)oxy)phenyl)acrylonitrile]
EC50 [1]: 0.01 ± 0.003 µM
RF IIIB [1]: 1.0
SI IIIB [1]: 2161
EC50 [2]: 2.52 ± 0.238 µM
SI Y188L [2]: 9
RF Y188L [2]: 246.1
EC50 [3]: 0.675 ± 0.188 µM
SI Y181C [3]: 33
RF Y181C [3]: 65.9
EC50 [4]: 0.28 ± 0.055 µM
SI L100I [4]: 79
RF L100I [4]: 27.4
EC50 [5]: 0.008 ± 0.002 µM
SI K103N [5]: 2866
RF K103N [5]: 0.8
EC50 [6]: 2.3 ± 0.66 µM
fold more potent than 3b ([6]; RES056 EC50, versus 3b): 75 fold
RF RES056 [6]: 224
SI RES056 [6]: 10
EC50 [7]: 3.21 ± 1.97 µM
SI F227L + V106A [7]: 7
RF F227L + V106A [7]: 313.5
EC50 [8]: 0.03 ± 0.009 µM
SI E138K [8]: 732
RF E138K [8]: 3.0
IC50 [9]: 0.047 ± 0.001 µM
CC50 at 5 days [10]: 22.1 ± 3.69 µM

Cc1cc(/C=C/C#N)cc(C)c1Oc1nc(Nc2ccc(B3OC(C)(C)C(C)(C)O3)cc2)nc2c1COC2 [Compound 4c, (E)-3-(3,5-Dimethyl-4-((2-((4-(4,4,5,5-tetramethyl-1,3,2-dioxaborolan-2-yl)phenyl)amino)-5,7-dihydrofuro [3,4-d]pyrimidin-4-yl)oxy)phenyl)acrylonitrile]
melting point: 134 to 136 °C
EC50 [1]: 0.014 ± 0.006 µM
RF IIIB [1]: 1.0
SI IIIB [1]: 5890
EC50 [2]: 3.96 ± 0.894 µM
SI Y188L [2]: 20
RF Y188L [2]: 290.3
EC50 [3]: 1.28 ± 0.489 µM
SI Y181C [3]: 63
RF Y181C [3]: 94.2
EC50 [4]: 0.553 ± 0.152 µM
SI L100I [4]: 145
RF L100I [4]: 40.6
EC50 [5]: 0.026 ± 0.005 µM
SI K103N [5]: 3110
RF K103N [5]: 1.9
EC50 [6]: 13.9 ± 9.32 µM
RF RES056 [6]: 1018
SI RES056 [6]: 6
EC50 [7]: 5.88 ± 2.52 µM
SI F227L + V106A [7]: 14
RF F227L + V106A [7]: 431.5
EC50 [8]: 0.039 ± 0.018 µM
SI E138K [8]: 2036
RF E138K [8]: 2.9
IC50 [9]: 0.2 ± 0.028 µM
CC50 at 5 days [10]: 80.3 ± 31.3 µM
